These results are taken from patent publication US20160256466A1, “PI3K INHIBITOR FOR TREATMENT OF RESPIRATORY DISEASE” (GLAXOSMITHKLINE INTELLECTUAL PROPERTY DEVELOPMENT LIMITED, priority 2013, published 2016).

Structures can show the parent of a compound that is named as a salt.

One assay has as its system lung gene expression. The assay can be described thus: Affymetrix GeneChip lung gene expression in S. Pneumoniae-infected mice. Type of assay: in vivo, C57BL/6 mice. The following applies: 0.2 mg/kg intranasal twice daily; lungs at various timepoints after S. Pneumoniae-infection; genes significantly altered (minimum 1.5 fold-change; p<0.05) compared to vehicle controls; n=6. As to the method:
(§1) Germ-free C57BL/6 male and female mice aged 10-12 weeks were intranasally administered with 0.2%Tween-80/saline vehicle or 0.2 mg/kg micronized 6-(1H-indol-4-yl)-4-(5-{[4-(1-methylethyl)-1-piperazinyl]methyl}-1,3-oxazol-2-yl)-1H-indazole hydrochloride in the same vehicle. Compound dosing was carried out twice daily for eleven days under anaesthesia using 3% isoflurane for induction and 2% isoflurane for maintenance. At the start of day two, and one hour after administering 6-(1H-indol-4-yl)-4-(5-{[4-(1-methylethyl)-1-piperazinyl]methyl}-1,3-oxazol-2-yl)-1H-indazole hydrochloride or vehicle, mice were anaesthetized with isoflurane as above and infected intranasally with 1×10^7 CFU of S. pneumoniae strain TIGR4. S. Pneumoniae was obtained and prepared as described previously (see, for example, Infect. Immun. December 2011; 79(12): 4965-4976) and given in an inoculum of 50 μl PBS per mouse. Mice were monitored three times daily and assessed using a defined mortality-endpoint, where mice displaying three or more of the limiting clinical signs stated in Home Office Project Licence PPL 70/7661 were culled.
Each band corresponds to a single probe and intensity signifies fold change, as indicated in the legend.

Assay [1] relates to S. pneumoniae strain TIGR4. The assay can be described thus: Streptococcus pneumoniae infection in mice, survival by defined mortality-endpoint. In kind it is in vivo, C57BL/6 mice. The following applies: 0.2 mg/kg micronized, intranasal, twice daily for eleven days; infected intranasally with 1×10^7 CFU; compared to vehicle controls; n=60; Mantel-Cox test **p<0.005. Here is the method:
as §1

`CC(C)N1CCN(Cc2cnc(-c3cc(-c4cccc5[nH]ccc45)cc4[nH]ncc34)o2)CC1` [6-(1H-Indol-4-yl)-4-(5-{[4-(1-methylethyl)-1-piperazinyl]methyl}-1,3-oxazol-2-yl)-1H-indazole hydrochloride]: the lung gene expression entry with lung gene expression was “altered lung gene expression”. The “defined mortality-endpoint (percentage survival)” value in assay [1] is listed as “reduced a defined mortality-endpoint”.
